This is an account of results in article PMC8251916 (Chemistry (Weinheim an Der Bergstrasse, Germany), 2021).

The test system of test [1] is F10T (DNA, hairpin, hexaethylene glycol (HEG) linker between 10 and 11) TATAGCTATATATAGCTATA
As to the kind of experiment: FRET melting. The note with it: 10 mM K+, 90 mM Li+; 10 mM Li cacodylate; 1 µM ligand, 200 nM DNA.

Test [2] has as its system FMycT (DNA, G4) TTGAGGGTGGGTAGGGTGGGTAA
Put plainly: FRET melting. The note with it: 1 mM K+, 99 mM Li+; 10 mM Li cacodylate; 1 µM ligand, 200 nM DNA.

Test [3] concerns FmycT-K+ (c-Myc promoter G-quadruplex, parallel). As to the kind of experiment: FRET melting assay, c-Myc promoter G4. The format is binding. To be noted: 200 nM DNA, PIPER and 3 not reliable (spectral overlap). Here is the method: (§1) With the library in hand, we began our investigation into G4 stabilization by conducting a Förster resonance energy transfer (FRET) melting assay to assess DNA stabilization using the procedure outlined by De Cian et. al. ^[13] […] The sequences examined (at 200 nM) were the human telomeric G4 in potassium buffer (F21T‐K^+, mixed parallel/hybrid G4) ^[14] and sodium buffer (F21T‐Na^+, antiparallel G4), ^[15] the c‐Myc promoter G‐quadruplex (FmycT‐K^+, parallel G4), ^[16] a polymorphic G4 found in T. brucei (FEBR1T‐K^+, a mixed G4 topology), ^[6b] and a hairpin duplex DNA sequence (F10T‐K^+). Together, these sequences represent targets for therapeutic intervention to treat parasitic infections, ^[6b] or cancer. ^[1b] The topology of each sequence was confirmed independently via circular dichroism (CD, Figure S1). […]
(§2) FRET melting assays were performed to assess ligand affinity for duplex and G-quadruplex
(§3) DNA. Briefly, oligonucleotides of interest were obtained labelled at the 5’ and 3’ ends with FAM (a fluorescence donor) and TAMRA (a fluorescence quencher), respectively. In the folded state, proximity of the donor and quencher result in no observed fluorescence from FAM, since energy is transferred non-radiatively to TAMRA by FRET. As the temperature is raised and the secondary structure denatures, the fluorophores move further apart and the fluorescence signal increases. From the resulting curve, the characteristic melting temperature (Tmax, also referred to as Tm) is defined as the temperature which corresponds to the maxima of the first derivative of the normalised fluorescence signal. The change in melting temperature (ΔTm) induced by the presence of a small molecule ligand provides an indication of the ligand’s ability to stabilise the DNA structure. FRET experiments were performed according to the […]
(§4) procedure reported by De Cian and co-workers[S3] on a Stratagene MX3005P. The method consisted of holding at 25 °C for 5 min, before heating at 1 °C/min to 96 °C in 1 °C increments, […]

The subject of test [4] is F21T (DNA, G4) GGGTTAGGGTTAGGGTTAGGG
Put plainly: FRET melting. To be noted: 10 mM K+, 90 mM Li+, 10 mM Li cacodylate, 200 nM DNA.

The test system of test [5] is Febr1T-K+ (T. brucei G-quadruplex). As to the kind of experiment: FRET melting assay, T. brucei G4. Format: binding. To be noted: 200 nM DNA, PIPER and 3 not reliable (spectral overlap). On the procedure:
as §1, §2, §3, §4

For test [6], the system named is F10T-K+ (hairpin duplex DNA). Put plainly: FRET melting assay, hairpin duplex DNA. Format: binding. The note with it: 200 nM DNA, PIPER and 3 not reliable (spectral overlap). On the procedure:
as §1, §2, §3, §4

Test [7] has as its system T. brucei. The arrangement: method as in earlier work. To be noted: typical G4 interactive compounds; ref 6b; cited from earlier work.
Test [8] concerns F21T-Na+ (human telomeric G-quadruplex, antiparallel). Put plainly: FRET melting assay, human telomeric G4 in sodium buffer. The format is binding. The note with it: 200 nM DNA, PIPER and 3 not reliable (spectral overlap). Here is the method:
as §1, §2, §3, §4

Test [9] concerns Febr1T (DNA, G4) GGGCAGGGGGTGATGGGGAGGAGCCAGGG
As to the kind of experiment: FRET melting. The note with it: 10 mM K+, 90 mM Li+; 10 mM Li cacodylate; 1 µM ligand, 200 nM DNA.

Test [10] has as its system F21T-K+ (human telomeric G-quadruplex, mixed parallel/hybrid). As to the kind of experiment: FRET melting assay, human telomeric G4 in potassium buffer. The format is binding. The note with it: 200 nM DNA, PIPER and 3 not reliable (spectral overlap). On the procedure:
as §1, §2, §3, §4

The test system of a further test is L. major. As to the kind of experiment: Leishmaniacidal activity, MTT assay. The format is cell-based. The note with it: Leishmania major; 72 h incubation, MTT absorbance; read-out: absolute EC50 L. major. Here is the method:
Doxorubicin, suramin and miltefosine were used as control compounds.[ ^6b , ^9 ] After incubation with varied concentrations of the compounds for 72 h, cell viability was measured using either an alamarBlue™ assay (for MRC5, HeLa and T. brucei) or MTT assay (for L. major). Absolute EC50 values and selectivity indexes were then calculated from dose‐response curves (Table 2 and S14).
Invitrogen). L. major promastigotes (MHOM/IL/80/Friedlin) were cultured at 28 °C, 5 % CO2 in modified RPMI-1640 medium (Thermo Fisher Scientific, Waltham, MA, USA) with 10% hiFBS. Parasites were split every other day and maintained in their experimental growth phase (below 2 million parasites per mL). […]
The results are expressed as the concentration of compound that reduces cell growth by 50 % versus untreated control cells (EC50) using GraphPad Prism 7 (GraphPad Software) to fit the data to a sigmoidal curve. Data are presented as the average of three independent measurements all conducted in triplicate conditions. […]
The leishmaniacidal activity of the compounds on promastigotes L. major (MHOM/IL/80/Friedlin) was carried out as previously described.[S14] Briefly, 4 × 10^6 / mL promastigotes were incubated for 72 h at 28 °C in 96-well plates (50 µL/well) in the presence of increasing concentration of compounds. Cell proliferation was determined using an MTT-based assay (Sigma-Aldrich). Thus, after the 72 h incubation, 10 µL of MTT (5 mg/ml) were added to each well and parasites were reincubated for 4 hrs at 28 °C. Then, 50 µL of 20 % SDS were added to each well. The plate was then incubated at 37°C for 4-16 hrs and analysed using an Infinite F200 plate reader (TECAN Austria, GmbH). The absorbance was measured […]
at a wavelength of 540 nm and the EC50 was calculated as described above. Data are presented as the average of three independent measurements, all conducted in triplicate conditions. […]

Test [11] deals with T. brucei. As to the kind of experiment: Trypanocidal activity, alamarBlue assay. Format: cell-based. The note with it: Trypanosoma brucei; 72 h incubation, alamarBlue fluorescence; read-out: absolute EC50 T. brucei. Here is the method: (§5) Doxorubicin, suramin and miltefosine were used as control compounds.[ ^6b , ^9 ] After incubation with varied concentrations of the compounds for 72 h, cell viability was measured using either an alamarBlue™ assay (for MRC5, HeLa and T. brucei) or MTT assay (for L. major). Absolute EC50 values and selectivity indexes were then calculated from dose‐response curves (Table 2 and S14). […]
(§6) Cell culture reagents were purchased from Thermo Fisher Scientific (Waltham, MA, USA) and used as-is. The Dulbecco’s Minimal Essential Medium (DMEM) formulation contained either high glucose (4.5 g/L, catalogue number: 10569) or low glucose (1 g/L, catalogue number:
(§7) 10567). RPMI-1640 was provided without sodium pyruvate and with L-glutamine (catalogue number: 11875). Phosphate Buffered Saline (PBS) contained NaCl (9 g/L), KH2PO4 (144 mg/L) and Na2HPO4-7.H2O (795 mg/L, catalogue number: 10010049). TrypLE Express™ was provided with EDTA (458 mg/L) and without Phenol Red (catalogue number: 12604021).
(§8) MRC-5 cells (human lung fibroblasts) were grown in monolayer (37 °C, 5 % CO2 and 100 % humidity) in DMEM medium (1 g/L glucose), supplemented with 10% heat-inactivated Fetal Bovine Serum (hiFBS), 2 mM L-glutamine, 100 U / mL penicillin and […]
(§9) streptomycin. […]
(§10) Cells were cultured according to ATCC recommendations and were used for the experiments while in the exponential growth phase. […]
hiFBS. Parasites were split every other day and maintained in their experimental growth phase (below 2 million parasites per mL).
(§11) Cytotoxicity was measured through the alamarBlue® assay (Thermo Fisher Scientific).[S6,S13] Briefly, 5×10^3 MRC-5 or HeLa cells were seeded in 96-wells plates (100 µL / well) in the presence of increasing concentrations of compound. After 72 hrs of incubation at 37 °C, 20 µL of alamarBlue® solution (110 ng / ml) was added to each well and cells were reincubated for 4 hrs at 37 °C. Then, 50 µL of 3 % SDS were added to each well. The plate was incubated at 37 °C for an extra hour and then analysed by fluorescence with an Infinite F200 plate reader (TECAN Austria, GmbH). The excitation wavelength was fixed at 550 nm and the emission wavelength at 590 nm. The results are expressed as the concentration of compound that reduces

Test [12] concerns HeLa cervical carcinoma cells. Put plainly: Cytotoxicity, alamarBlue assay, HeLa. The format is cell-based, human. The note with it: Homo sapiens, HeLa; 72 h incubation, alamarBlue fluorescence; read-out: absolute EC50 HeLa. On the procedure:
as §5, §6, §7
MRC-5 cells (human lung fibroblasts) were grown in monolayer (37 °C, 5 % CO2 and 100 % humidity) in DMEM medium (1 g/L glucose), supplemented with 10% heat-inactivated Fetal Bovine Serum (hiFBS), 2 mM L-glutamine, 100 U / mL penicillin and […] streptomycin. HeLa (Human cervical carcinoma cell line) cells were maintained at 37 °C and 5 % CO2 in high glucose DMEM (4.5 g / L) supplemented with 10% hiFBS, 100 U / ml penicillin, […] streptomycin, 2 mM L-glutamine and non-essential aminoacids (1X).
as §10, §11

Another test has as its system MRC5 non-tumoral cells. Put plainly: Cytotoxicity, alamarBlue assay, MRC5. The format is cell-based, human. The note with it: Homo sapiens, MRC5, 72 h, 72 h incubation, alamarBlue fluorescence; read-out: absolute EC50 MRC5. Here is the method: as §5, §6, §7, §8, §9, §10, §11

Where two headings read alike, the source gives them in different places.

On to `C[n+]1ccc(-c2c3nc(c(-c4cc[n+](C)cc4)c4ccc([nH]4)c(-c4cc[n+](C)cc4)c4nc(c(-c5cc[n+](C)cc5)c5ccc2[nH]5)C=C4)C=C3)cc1`, for which the thermal shift (ΔTm) in test [1] came to 9 ± 1 °C.
Turning to `NCCOc1cc(C(=O)Nc2cc(OCCN)c3ccccc3n2)nc(C(=O)Nc2cc(OCCN)c3ccccc3n2)c1` [Pyridostatin, reference compound], the shift in melting temperature (ΔTm) is 20 ± 3 °C in test [2], 34 ± 1 °C in [4] (1 µM ligand) and 29 ± 2 °C in [9]. Also, in [3] (1 µM ligand), the “ΔTm FmycT-K+” value came to 20 ± 3 °C. Moreover, the “ΔTm Febr1T-K+” value in [5] (1 µM ligand) came to 29 ± 2 °C. Moreover, the “ΔTm F10T-K+” value in test [6] (1 µM ligand) stood at 1 ± 1 °C. The EC50 in the test on T. brucei [7] is 5.5 µM. Further, the “ΔTm F21T-Na+” value in test [8] (1 µM ligand) is 36 ± 2 °C. The “ΔTm F21T-K+” value in test [10] (1 µM ligand) came to 34 ± 1 °C.
`CN(C)c1ccc(Nc2c3ccc(NC(=O)CCN4CCCC4)cc3nc3cc(NC(=O)CCN4CCCC4)ccc23)cc1` [BRACO‐19]: in the test with T. brucei [7], the EC50 is 7.8 µM and the “selectivity index (SI) T. brucei over MRC5” value is 1.5.
`CN1CCN(CCCNC(=O)c2ccc(C(=O)c3ccc(C(=O)NCCCN4CCN(C)CC4)c(C(=O)NCCCN4CCN(C)CC4)c3)cc2C(=O)NCCCN2CCN(C)CC2)CC1` [Compound 10]: the “ΔTm FmycT-K+” value in [3] (10 µM ligand) is -1 ± 1 °C. Also, the “ΔTm Febr1T-K+” value in test [5] (10 µM ligand) turned out to be 1 ± 2 °C. Further, the “ΔTm F10T-K+” value in [6] (10 µM ligand) stood at 0 ± 1 °C. Also, the EC50 in the test with L. major was above 100 µM; in the test with T. brucei [11], 55 ± 3 µM; in [12], above 100 µM; in the test on MRC5 non-tumoral cells it was above 100 µM. In test [8] (10 µM ligand), the “ΔTm F21T-Na+” value was -2 ± 1 °C. In test [10] (10 µM ligand), the “ΔTm F21T-K+” value is -2 ± 1 °C.
`CN1CCN(CCCN2C(=O)c3ccc(-c4ccc5c(c4)C(=O)N(CCCN4CCN(C)CC4)C5=O)cc3C2=O)CC1` [Compound 4]: the “ΔTm FmycT-K+” value in test [3] (10 µM ligand) turned out to be 2 ± 1 °C. Further, the ΔTm in test [4] (10 µM ligand) amounted to 1 ± 1 °C. The “ΔTm Febr1T-K+” value in [5] (10 µM ligand) was 3 ± 1 °C. Moreover, the “ΔTm F10T-K+” value in test [6] (10 µM ligand) stood at 0 ± 1 °C. Also, the EC50 was above 100 µM in the test with L. major, 57 ± 10 µM with T. brucei [11], above 100 µM in [12] and above 100 µM with MRC5 non-tumoral cells. For the same molecule, in [8] (10 µM ligand), the “ΔTm F21T-Na+” value was -2 ± 2 °C. In addition, in test [10] (10 µM ligand), the “ΔTm F21T-K+” value is 1 ± 1 °C.
